pIC50: −log10 of the molar value. In brackets after ≈: the same amount, converted by molar mass.
Experiments:
MCF7 = experiment: Cytotoxicity against human MCF7 cells assessed as reduction in cell viability incubated for 72 hrs by MTT assay; details: MCF7, 72 h
HT-29 = experiment: Cytotoxicity against human HT-29 cells assessed as reduction in cell viability incubated for 72 hrs by MTT assay; details: HT-29, 72 h
MOLT-4 = experiment: Cytotoxicity against human MOLT-4 cells assessed as reduction in cell viability incubated for 72 hrs by MTT assay; details: MOLT-4, 72 h
Bacillus cereus [1] = experiment: microbe, parasite or virus in culture; details: ATTC 10876
Description: Antibacterial activity against Bacillus cereus ATTC 10876 assessed as reduction in bacterial growth incubated for 18 to 24 hrs by broth microdilution method

Enterococcus faecalis [2] = experiment: microbe, parasite or virus in culture; details: ATTC 29212, 24 h
Description: Antibacterial activity against Enterococcus faecalis ATCC 29212 assessed as reduction in bacterial growth incubated for 24 hrs by CLSI protocol based assay

Staphylococcus aureus [3] = experiment: microbe, parasite or virus in culture; details: ATCC 25923
Description: Antibacterial activity against Staphylococcus aureus ATCC 25923 assessed as reduction in bacterial growth incubated for 18 to 24 hrs by broth microdilution method

Enterococcus faecalis [4] = experiment: microbe, parasite or virus in culture; details: ATCC 29212, 24 h
Description: Antibacterial activity against Enterococcus faecalis ATCC 29212 assessed as inhibition of bacterial growth incubated for 24 hrs by broth microdilution method

Proteus mirabilis = experiment: microbe, parasite or virus in culture; details: ATCC 35659
Description: Antibacterial activity against Proteus mirabilis ATCC 35659 assessed as reduction in bacterial growth incubated for 18 to 24 hrs by broth microdilution method

Escherichia coli [5] = experiment: microbe, parasite or virus in culture; details: ATCC 25922
Description: Antibacterial activity against Escherichia coli ATCC 25922 assessed as reduction in bacterial growth incubated for 18 to 24 hrs by broth microdilution method

Pseudomonas aeruginosa = experiment: microbe, parasite or virus in culture; details: ATCC 27853
Description: Antimicrobial activity against Pseudomonas aeruginosa ATCC 27853 assessed as inhibition of microbial growth by CLSI protocol based two-fold serial broth microdilution method

[6] = target: T1, Prostaglandin G/H synthase 1 (Ovis aries, UniProt P05979); experiment: Inhibition of ovine COX-1
T1 sequence (P05979 whole entry): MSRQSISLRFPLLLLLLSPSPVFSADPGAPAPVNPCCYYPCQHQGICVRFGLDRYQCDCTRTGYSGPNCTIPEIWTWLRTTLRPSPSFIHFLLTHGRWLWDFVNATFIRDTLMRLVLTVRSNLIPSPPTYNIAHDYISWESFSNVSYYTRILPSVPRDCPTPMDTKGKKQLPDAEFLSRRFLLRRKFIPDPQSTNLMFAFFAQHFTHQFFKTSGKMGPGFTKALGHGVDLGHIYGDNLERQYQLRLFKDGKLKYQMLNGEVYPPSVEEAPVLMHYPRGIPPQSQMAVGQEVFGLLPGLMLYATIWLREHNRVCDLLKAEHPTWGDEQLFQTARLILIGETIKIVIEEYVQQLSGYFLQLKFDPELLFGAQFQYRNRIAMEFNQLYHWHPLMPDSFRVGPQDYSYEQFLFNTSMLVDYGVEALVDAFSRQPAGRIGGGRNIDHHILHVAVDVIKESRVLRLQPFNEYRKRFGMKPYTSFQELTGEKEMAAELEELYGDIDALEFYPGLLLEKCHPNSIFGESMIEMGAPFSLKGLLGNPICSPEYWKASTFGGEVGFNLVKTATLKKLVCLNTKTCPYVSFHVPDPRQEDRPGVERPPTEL

[7] = target: T2, Prostaglandin G/H synthase 2 (Homo sapiens, UniProt P35354); experiment: Inhibition of human recombinant COX-2
T2 sequence (P35354 whole entry): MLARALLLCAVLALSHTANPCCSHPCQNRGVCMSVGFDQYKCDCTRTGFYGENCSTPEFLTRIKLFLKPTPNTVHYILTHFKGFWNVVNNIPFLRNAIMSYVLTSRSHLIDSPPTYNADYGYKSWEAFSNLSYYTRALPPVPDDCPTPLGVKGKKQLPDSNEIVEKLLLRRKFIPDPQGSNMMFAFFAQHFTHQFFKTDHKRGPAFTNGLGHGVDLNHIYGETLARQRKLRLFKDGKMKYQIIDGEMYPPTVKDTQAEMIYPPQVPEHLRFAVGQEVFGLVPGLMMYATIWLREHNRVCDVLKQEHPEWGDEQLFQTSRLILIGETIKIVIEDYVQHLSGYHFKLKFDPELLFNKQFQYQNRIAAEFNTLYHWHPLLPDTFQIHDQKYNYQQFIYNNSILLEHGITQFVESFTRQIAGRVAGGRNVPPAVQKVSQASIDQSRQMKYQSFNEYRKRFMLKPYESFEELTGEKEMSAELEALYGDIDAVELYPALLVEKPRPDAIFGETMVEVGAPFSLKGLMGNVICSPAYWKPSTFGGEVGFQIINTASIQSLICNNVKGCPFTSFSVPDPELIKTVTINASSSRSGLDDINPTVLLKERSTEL

[8] = Antioxidant activity assessed as DPPH radical scavenging activity incubated for 30 mins
Staphylococcus aureus [9] = experiment: microbe, parasite or virus in culture; details: NCTC 13616, 20 h
Description: Antibacterial activity against methicillin-resistant Staphylococcus aureus NCTC 13616 assessed as reduction in bacterial growth incubated for 20 hrs by broth micro-dilution method

Bacillus subtilis = experiment: microbe, parasite or virus in culture; details: ATCC 6633, 20 h
Description: Antibacterial activity against Bacillus subtilis ATCC 6633 assessed as bacterial growth inhibition measured for 20 hrs by micro-broth dilution method

Bacillus cereus [10] = experiment: microbe, parasite or virus in culture; details: ATCC 14579
Description: Antibacterial activity against Bacillus cereus ATCC 14579 assessed as reduction in bacterial growth incubated for 18 to 24 hrs by broth microdilution method

Klebsiella pneumoniae = experiment: microbe, parasite or virus in culture; details: ATCC 43816, 20 h
Description: Antimicrobial activity against Klebsiella pneumoniae ATCC 43816 assessed as reduction in bacterial growth incubated for 20 hrs by broth microdilution analysis

Escherichia coli [11] = experiment: microbe, parasite or virus in culture; details: ATCC 8739, 20 h
Description: Antimicrobial activity against Escherichia coli ATCC 8739 assessed as reduction in bacterial growth incubated for 20 hrs by broth microdilution analysis

Proteus vulgaris = experiment: microbe, parasite or virus in culture; details: ATCC 13315, 24 h
Description: Antimicrobial activity against Proteus vulgaris ATCC 13315 assessed as microbial growth inhibition incubated for 24 hrs by broth microdilution method

SMILES: O=C1C=C(NCc2cn(Cc3ccc(C(F)(F)F)cc3)nn2)C(=O)c2ccccc21
- pIC50 (MCF7): 4.98
- pIC50 (HT-29): 5.17
- pIC50 (MOLT-4): 4.98

SMILES: CCCCCCCCCCCCn1nnc(-c2n[nH]c(=S)n2N)c1-c1n[nH]c(=S)n1N
- MIC (Bacillus cereus [1]): 1 µM (≈ 0.466 µg/mL)
- MIC (Enterococcus faecalis [2]): 1 µM (≈ 0.466 µg/mL)
- MIC (Staphylococcus aureus [3]): 1 µM (≈ 0.466 µg/mL)
- MIC (Enterococcus faecalis [4]): 1 µM (≈ 0.466 µg/mL)
- MIC (Proteus mirabilis): 1 µM (≈ 0.466 µg/mL)
- MIC (Escherichia coli [5]): 1 µM (≈ 0.466 µg/mL)
- MIC (Pseudomonas aeruginosa): 1 µM (≈ 0.466 µg/mL)

SMILES: CCCCCCCCCCCCCCCCn1nnc(-c2n[nH]c(=S)n2N)c1-c1n[nH]c(=S)n1N
- MIC (Bacillus cereus [1]): 1 µM (≈ 0.522 µg/mL)
- MIC (Enterococcus faecalis [2]): 1 µM (≈ 0.522 µg/mL)
- MIC (Staphylococcus aureus [3]): 1 µM (≈ 0.522 µg/mL)
- MIC (Enterococcus faecalis [4]): 1 µM (≈ 0.522 µg/mL)
- MIC (Proteus mirabilis): 1 µM (≈ 0.522 µg/mL)
- MIC (Escherichia coli [5]): 1 µM (≈ 0.522 µg/mL)
- MIC (Pseudomonas aeruginosa): 1 µM (≈ 0.522 µg/mL)

SMILES: CCCCCCCCCCn1nnc(-c2n[nH]c(=S)n2N)c1-c1n[nH]c(=S)n1N
- MIC (Bacillus cereus [1]): 1 µM (≈ 0.438 µg/mL)
- MIC (Enterococcus faecalis [2]): 1 µM (≈ 0.438 µg/mL)
- MIC (Staphylococcus aureus [3]): 1 µM (≈ 0.438 µg/mL)
- MIC (Enterococcus faecalis [4]): 1 µM (≈ 0.438 µg/mL)
- MIC (Proteus mirabilis): 1 µM (≈ 0.438 µg/mL)
- MIC (Escherichia coli [5]): 1 µM (≈ 0.438 µg/mL)
- MIC (Pseudomonas aeruginosa): 1 µM (≈ 0.438 µg/mL)

SMILES: CCCCCCCCCCCCCCn1nnc(-c2n[nH]c(=S)n2N)c1-c1n[nH]c(=S)n1N
- MIC (Bacillus cereus [1]): 1 µM (≈ 0.494 µg/mL)
- MIC (Enterococcus faecalis [2]): 1 µM (≈ 0.494 µg/mL)
- MIC (Staphylococcus aureus [3]): 1 µM (≈ 0.494 µg/mL)
- MIC (Enterococcus faecalis [4]): 1 µM (≈ 0.494 µg/mL)
- MIC (Proteus mirabilis): 1 µM (≈ 0.494 µg/mL)
- MIC (Escherichia coli [5]): 1 µM (≈ 0.494 µg/mL)
- MIC (Pseudomonas aeruginosa): 1 µM (≈ 0.494 µg/mL)

SMILES: COc1ccc(/C=C/C(=O)c2cc(-n3cc(CN4C(=O)C(=O)c5ccccc54)nn3)ccc2O)cc1
- pIC50 [6]: 5.13

SMILES: O=C(/C=C/c1ccc(Br)cc1)c1cc(-n2cc(CN3C(=O)C(=O)c4ccccc43)nn2)ccc1O
- pIC50 [6]: 5.13
- pIC50 [7]: 7.43

SMILES: O=c1cc(-c2ccc(OCCCn3cc(-c4cc5ccccc5c5ccccc45)nn3)cc2)oc2ccccc12
- pIC50 [8]: 4.54

SMILES: O=C(/C=C/c1ccc(O)cc1)c1cc(-n2cc(CN3C(=O)C(=O)c4ccccc43)nn2)ccc1O
- pIC50 [6]: 5.13
- pIC50 [7]: 7.43

SMILES: O=C(/C=C/c1ccc(Cl)cc1)c1cc(-n2cc(CN3C(=O)C(=O)c4ccccc43)nn2)ccc1O
- pIC50 [6]: 5.13
- pIC50 [7]: 7.43

SMILES: CN(C)C(=O)c1ccc(/C=C/C(=O)c2cc(-n3cc(-c4ccccc4)nn3)ccc2O)cc1
- pIC50 [6]: 5.13
- pIC50 [7]: 7.43

SMILES: O=C(/C=C/c1ccc(Br)cc1)c1cc(-n2cc(-c3ccccc3)nn2)ccc1O
- pIC50 [6]: 5.13
- pIC50 [7]: 7.43

SMILES: CC(C)Cc1ccc(C(C)C(=O)c2ccc(OCc3cn(-c4ccccc4)nn3)cc2O)cc1 (stereo not given)
- MIC (Staphylococcus aureus [9]): 12 µg/mL (≈ 26.3 µM)
- MIC (Bacillus subtilis): 12 µg/mL (≈ 26.3 µM)
- MIC (Bacillus cereus [10]): 12 µg/mL (≈ 26.3 µM)
- MIC (Klebsiella pneumoniae): 12 µg/mL (≈ 26.3 µM)
- MIC (Escherichia coli [11]): 12 µg/mL (≈ 26.3 µM)
- MIC (Proteus vulgaris): 12 µg/mL (≈ 26.3 µM)

SMILES: Cc1ccc(/C=C/C(=O)c2cc(-n3cc(CN4C(=O)C(=O)c5ccccc54)nn3)ccc2O)cc1
- pIC50 [6]: 5.13
- pIC50 [7]: 7.43

SMILES: O=C(/C=C/c1ccccc1)c1cc(-n2cc(-c3ccccc3)nn2)ccc1O
- pIC50 [6]: 5.13
- pIC50 [7]: 7.43

SMILES: O=C(/C=C/C=C/c1ccccc1)c1cc(-n2cc(-c3ccccc3)nn2)ccc1O
- pIC50 [6]: 5.13
- pIC50 [7]: 7.43

SMILES: Cc1ccc(/C=C/C(=O)c2cc(-n3cc(-c4ccccc4)nn3)ccc2O)cc1
- pIC50 [6]: 5.13
- pIC50 [7]: 7.43

SMILES: CC(C)Cc1ccc(C(C)C(=O)c2ccc(OCc3cn(-c4cccc(Cl)c4)nn3)cc2O)cc1 (stereo not given)
- MIC (Staphylococcus aureus [9]): 12 µg/mL (≈ 24.5 µM)
- MIC (Bacillus subtilis): 12 µg/mL (≈ 24.5 µM)
- MIC (Bacillus cereus [10]): 12 µg/mL (≈ 24.5 µM)
- MIC (Klebsiella pneumoniae): 12 µg/mL (≈ 24.5 µM)
- MIC (Escherichia coli [11]): 12 µg/mL (≈ 24.5 µM)
- MIC (Proteus vulgaris): 12 µg/mL (≈ 24.5 µM)

SMILES: O=C(/C=C/c1ccc(O)cc1)c1cc(-n2cc(-c3ccccc3)nn2)ccc1O
- pIC50 [6]: 5.13
- pIC50 [7]: 7.43

Reference: ChEMBL document CHEMBL6074626, “Recent advances in triazole synthesis via click chemistry and their pharmacological applications: A review” (Bioorg Med Chem Lett, 2024)
